In patent publication US20240150368A1, “ULK INHIBITORS AND METHODS OF USE THEREOF” (Deciphera Pharmaceuticals, LLC, priority 2022, published 2024):

The compounds below were run against T1, LRRK2 kinase (Homo sapiens, UniProt Q5S007) (assay: Biochemical assay for LRRK2 (coupled pyruvate kinase/lactate dehydrogenase assay)). Conditions: 26.4 nM LRRK2, 1 mM ATP; read-out: LRRK2 (inhibition of LRRK2 kinase activity, IC50).
T1 construct: (residues 970-2528; ID NO; 3); purchased Thermo Fisher
Experimental: Biochemical Assay for LRRK2 (SEQ. ID NO. 3)
Activity of LRRK2 kinase was determined spectroscopically using a coupled pyruvate kinase/lactate dehydrogenase assay that continuously monitors the ATP hydrolysis-dependent oxidation of NADH (e.g., Schindler et al. Science (2000) 289: 1938-1942). Assays were conducted in 384-well plates (100 μL final volume) using 26.4 nM LRRK2 (Thermo Fisher), 0.1 mM peptide substrate (RLGRDKYKTLRQIRQ), 1.5 units pyruvate kinase, 2.1 units lactate dehydrogenase, 1 mM phosphoenol pyruvate, 0.28 mM NADH and 1 mM ATP in assay buffer (100 mM Tris, pH 7.5, 15 mM MgCl2, 0.5 mM DTT, 0.004% (w/v) BSA, and 0.004% Triton X-100). Inhibition of LRRK2 was measured by adding serial diluted test compound (final assay concentration of 1% DMSO). A decrease in absorption at 340 nm was monitored continuously for 6 h at 30° C. on a multi-mode microplate reader (BioTek). The reaction rate was calculated using the 2-3 h time frame. The reaction rate at each concentration of compound was converted to percent inhibition using controls (i.e., reaction with no test compound and reaction with a known inhibitor) and IC50 values were calculated using software routines in Prism (GraphPad software).

T1 sequence (Q5S007 with tags, fused parts or gaps): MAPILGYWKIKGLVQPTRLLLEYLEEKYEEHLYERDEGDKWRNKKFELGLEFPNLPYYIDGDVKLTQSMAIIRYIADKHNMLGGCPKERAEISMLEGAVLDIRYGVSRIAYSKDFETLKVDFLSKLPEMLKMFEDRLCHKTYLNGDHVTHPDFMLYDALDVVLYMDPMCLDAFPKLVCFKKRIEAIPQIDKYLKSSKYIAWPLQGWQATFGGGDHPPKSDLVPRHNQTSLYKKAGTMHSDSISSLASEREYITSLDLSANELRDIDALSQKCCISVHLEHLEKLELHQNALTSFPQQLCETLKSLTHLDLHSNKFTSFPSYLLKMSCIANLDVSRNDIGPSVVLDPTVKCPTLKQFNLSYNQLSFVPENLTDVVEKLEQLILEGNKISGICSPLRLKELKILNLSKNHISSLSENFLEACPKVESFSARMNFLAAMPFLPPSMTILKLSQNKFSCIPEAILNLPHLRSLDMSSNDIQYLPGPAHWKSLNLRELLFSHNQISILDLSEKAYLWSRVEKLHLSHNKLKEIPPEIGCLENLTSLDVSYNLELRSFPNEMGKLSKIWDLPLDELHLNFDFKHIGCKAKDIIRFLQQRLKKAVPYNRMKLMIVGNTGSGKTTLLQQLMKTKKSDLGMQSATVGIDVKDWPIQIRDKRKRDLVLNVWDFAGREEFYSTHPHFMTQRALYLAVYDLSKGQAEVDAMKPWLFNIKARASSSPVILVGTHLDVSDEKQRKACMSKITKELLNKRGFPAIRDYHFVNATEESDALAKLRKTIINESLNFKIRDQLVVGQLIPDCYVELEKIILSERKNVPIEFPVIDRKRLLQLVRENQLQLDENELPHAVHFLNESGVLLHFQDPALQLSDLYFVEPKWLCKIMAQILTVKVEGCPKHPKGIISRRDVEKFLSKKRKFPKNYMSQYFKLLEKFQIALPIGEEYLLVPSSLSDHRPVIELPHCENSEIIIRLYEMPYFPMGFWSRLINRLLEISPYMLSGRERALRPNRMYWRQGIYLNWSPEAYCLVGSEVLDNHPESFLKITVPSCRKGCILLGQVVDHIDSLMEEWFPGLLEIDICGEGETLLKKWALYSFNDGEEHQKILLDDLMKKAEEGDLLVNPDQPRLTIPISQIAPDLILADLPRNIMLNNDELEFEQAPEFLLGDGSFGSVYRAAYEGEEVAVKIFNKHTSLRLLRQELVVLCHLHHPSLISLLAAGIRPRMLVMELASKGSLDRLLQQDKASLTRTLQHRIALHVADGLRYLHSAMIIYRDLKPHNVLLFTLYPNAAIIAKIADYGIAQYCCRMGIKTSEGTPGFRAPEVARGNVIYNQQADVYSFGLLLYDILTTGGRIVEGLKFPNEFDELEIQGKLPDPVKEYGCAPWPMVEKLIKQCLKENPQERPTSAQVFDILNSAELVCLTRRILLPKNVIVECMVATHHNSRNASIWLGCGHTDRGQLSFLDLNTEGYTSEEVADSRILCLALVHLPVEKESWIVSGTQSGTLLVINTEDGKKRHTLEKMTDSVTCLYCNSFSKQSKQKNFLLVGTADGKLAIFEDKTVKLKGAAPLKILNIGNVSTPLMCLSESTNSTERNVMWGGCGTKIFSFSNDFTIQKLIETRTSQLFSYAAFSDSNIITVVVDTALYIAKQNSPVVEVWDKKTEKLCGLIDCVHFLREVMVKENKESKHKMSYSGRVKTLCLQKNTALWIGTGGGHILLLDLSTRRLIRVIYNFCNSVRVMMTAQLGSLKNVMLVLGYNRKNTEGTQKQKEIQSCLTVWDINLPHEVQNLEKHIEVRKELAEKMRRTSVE

| Compound | IC50 [nM] |
| --- | --- |
| CC/C(Nc1cnn(C(C)C)c1)=C1/C(=O)Nc2ccc(C(=O)NCC(F)(F)F)cc21 [Example 4, (Z)-3-(1-((1-isopropyl-1H-pyrazol-4-yl)amino)propylidene)-2-oxo-N-(2,2,2-trifluoroethyl)indoline-5-carboxamide] | ≤ 100 |
| CC/C(Nc1cnn(C2CCN(C(C)C)CC2)c1)=C1/C(=O)Nc2ccc(C(=O)NCC(F)(F)F)cc21 [Example 8] | 100 to 300 |
| CC/C(Nc1cnn(C2CCN(C(C)C)CC2)c1)=C1/C(=O)Nc2ccc(C(=O)NCCC#N)cc21 [Example 26] | 100 to 300 |
| CC/C(Nc1cnn(C2CCN(C(C)C)CC2)c1)=C1/C(=O)Nc2ccc(C(=O)NCCC(F)(F)F)cc21 [Example 31] | ≤ 100 |

These compounds were tested on ULK kinase substrate ATG13 (pS318-ATG13) in MiaPaCa-2 cells (assay: pATG13 levels of mutant KRas MiaPaCa-2 cells after treatment with ULK inhibitors in combination with trametinib (ELISA)). Conditions: not given.
Format: cell-based, human
Experimental: pATG13 Levels of Mutant KRas MiaPaCa-2 Cells after Treatment with ULK Inhibitors in Combination with Trametinib
MiaPaCa-2 human pancreatic cancer cells (10000 cells/well) were added to a 384-well tissue-culture treated plate in 50 μL of pre-warmed DMEM medium supplemented with 10% characterized fetal bovine serum (Invitrogen, Carlsbad, CA), 100 units/mL penicillin G, 100 μg/mL streptomycin, and 2.5% Horse Serum and allowed to grow overnight at 37° C., 5% CO2, and 95% humidity. The following day, 10 μL of media containing trametinib or DMSO as a control was added to wells. The final concentration of trametinib in wells was 250 nM. A dose response of a test compound (0.6 μL per well) was added. DMSO (0.6 μL) was added to control wells. The plate was briefly shaken to mix wells and then incubated at 37° C. overnight. The next day, the media was aspirated and cells were washed with Dulbecco's Phosphate Buffered Saline (Gibco). Cells were lysed using MPER lysis buffer (Pierce, Rockford, IL) containing Halt Phosphatase and Protease Inhibitors (Pierce, Rockford, IL) and Phosphatase inhibitor cocktail 2 (Sigma, St. Louis, MO) at 4° C. for 10 minutes with shaking.
Cellular levels of phospho-Serine 318 ATG13 (pATG13) were measured via an ELISA method. Total ATG13 Antibody (Cell Signaling Cat #13273) was used to coat the wells. The plate was incubated at 4° C. overnight and washed with ELISA wash buffer (Biolegend Cat #421601). The wells were then blocked with assay diluent (Biolegend Cat #421203) for 1 h at rt. Plate wells were washed with ELISA wash buffer. Cell lysate was added to wells and incubated at rt for 2 h. Plate wells were washed with ELISA wash buffer. Biotinylated pS318-ATG13 antibody (Rockland Immunochemicals Cat #600-401-C49) was diluted in assay diluent and added to each well and incubated at rt for 1 h. Plate wells were washed with ELISA wash buffer. Streptavidin linked to horseradish peroxidase (Thermo Fisher Cat #21140) was diluted in assay diluent and added to each well and incubated at rt for 1 h. Plate wells were washed with ELISA wash buffer. High sensitivity TMB substrate (Biolegend Cat #421101) was added to each well and incubated at rt for 20 min. The reaction was stopped with 2.0N sulfuric acid. The plate was analyzed at on a plate reader measuring absorbance at 450 nm and 540 nm (background). Signal was calculated by first subtracting the background absorbance at 540 nm from the absorbance at 450 nm for each well. Next, the background corrected absorbance at 450 nm from blank wells was subtracted from test wells. Data was compared to control wells to determine % ATG13 phosphorylation. GraphPad Prism was used to calculate IC50 values.

| Compound | IC50 [nM] |
| --- | --- |
| CC/C(Nc1cnn(C2CCN(C(C)C)CC2)c1)=C1/C(=O)Nc2ccc(C(=O)NCC3CCC(C4CC4)O3)cc21 (stereo not drawn) [Example 3, (Z)—N-((5-cyclopropyltetrahydrofuran-2-yl)methyl)-3-(1-((1-(1-isopropylpiperidin-4-yl)-1H-pyrazol-4-yl)amino)propylidene)-2-oxoindoline-5-carboxamide] | 100 to 300 |
| CC/C(Nc1cnn(C(C)C)c1)=C1/C(=O)Nc2ccc(C(=O)NCC(F)(F)F)cc21 [Example 4, (Z)-3-(1-((1-isopropyl-1H-pyrazol-4-yl)amino)propylidene)-2-oxo-N-(2,2,2-trifluoroethyl)indoline-5-carboxamide] | ≤ 100 |
| CC/C(Nc1cnn(C(C)C)c1)=C1/C(=O)Nc2ccc(C(=O)NCC3(C)COC3)cc21 [Example 5, (Z)-3-(1-((1-isopropyl-1H-pyrazol-4-yl)amino)propylidene)-N-((3-methyloxetan-3-yl)methyl)-2-oxoindoline-5-carboxamide] | 100 to 300 |
| CC/C(Nc1cnn(C2CCN(C(C)C)CC2)c1)=C1/C(=O)Nc2ccc(C(=O)N(C)CC(F)(F)F)cc21 [Example 7] | ≤ 100 |
| CC/C(Nc1cnn(C2CCN(C(C)C)CC2)c1)=C1/C(=O)Nc2ccc(C(=O)NCC(F)(F)F)cc21 [Example 8] | ≤ 100 |
| CC/C(Nc1cnn(C2CCN(C(C)C)CC2)c1)=C1/C(=O)Nc2ccc(C(=O)N(C)CCOC)cc21 [Example 9] | 100 to 300 |
| CC/C(Nc1cnn(C2CCN(C(C)C)CC2)c1)=C1/C(=O)Nc2ccc(C(=O)NCC(C)C)cc21 [Example 16] | ≤ 100 |
| CC/C(Nc1cnn(C2CCN(C(C)C)CC2)c1)=C1/C(=O)Nc2ccc(C(=O)NCC3CCO3)cc21 (stereo not drawn) [Example 21] | ≤ 100 |
| CC/C(Nc1cnn(C2CCN(C(C)C)CC2)c1)=C1/C(=O)Nc2ccc(C(=O)NCCC#N)cc21 [Example 26] | ≤ 100 |
| CC/C(Nc1cnn(C2CCN(C(C)C)CC2)c1)=C1/C(=O)Nc2ccc(C(=O)NCC(C)(C)OC)cc21 [Example 27] | ≤ 100 |
| CC/C(Nc1cnn(C2CCN(C(C)C)CC2)c1)=C1/C(=O)Nc2ccc(C(=O)NCC(C)(C)O)cc21 [Example 28] | ≤ 100 |
| CC/C(Nc1cnn(C2CCN(C(C)C)CC2)c1)=C1/C(=O)Nc2ccc(C(=O)NC3CC(F)(F)C3)cc21 [Example 29] | ≤ 100 |
| CC/C(Nc1cnn(C2CCN(C(C)C)CC2)c1)=C1/C(=O)Nc2ccc(C(=O)NCC3CC(F)(F)C3)cc21 [Example 30] | ≤ 100 |
| CC/C(Nc1cnn(C2CCN(C(C)C)CC2)c1)=C1/C(=O)Nc2ccc(C(=O)NCCC(F)(F)F)cc21 [Example 31] | ≤ 100 |
| CC/C(Nc1cnn(C2CCN(C(C)C)CC2)c1)=C1/C(=O)Nc2ccc(C(=O)NCC3CC3)cc21 [Example 42] | ≤ 100 |
| CC/C(Nc1cnn(C2CCN(C(C)C)CC2)c1)=C1/C(=O)Nc2ccc(C(=O)NCC3CCCC3)cc21 [Example 44] | ≤ 100 |
| CC/C(Nc1cnn(C2CCN(C)CC2)c1)=C1/C(=O)Nc2ccc(C(=O)NC[C@H]3CCCO3)cc21 [Example 51] | ≤ 100 |
| CC/C(Nc1cnn(C2CC3CCC(C2)N3C)c1)=C1/C(=O)Nc2ccc(C(=O)NC[C@H]3CCCO3)cc21 (stereo partly drawn) [Example 53] | ≤ 100 |
| CC/C(Nc1ccc(N2CC3CC(C2)N3C)cc1)=C1/C(=O)Nc2ccc(C(=O)NCC(F)(F)F)cc21 [Example 60] | ≤ 100 |
| CC/C(Nc1ccc(N2C[C@H]3CN(C)C[C@H]3C2)cc1)=C1/C(=O)Nc2ccc(C(=O)NCC(F)(F)F)cc21 [Example 61] | ≤ 100 |
| CC/C(Nc1ccc(N2CCN(C(C)C)CC2)cc1)=C1/C(=O)Nc2cc(F)c(C(=O)NCC(F)(F)F)cc21 [Example 100] | 100 to 300 |
| C/C(Nc1cnn(C(C)C)c1)=C1/C(=O)Nc2ccc(C(=O)NCC(F)(F)F)cc21 [Example 101] | ≤ 100 |
| CC/C(Nc1cnn(CCOC)c1)=C1/C(=O)Nc2ccc(C(=O)NCC(F)(F)F)cc21 [Example 102] | ≤ 100 |
| CC/C(Nc1cnn(CCN(C)C)c1)=C1/C(=O)Nc2ccc(C(=O)NCC(F)(F)F)cc21 [Example 103] | ≤ 100 |

| Compound | IC50 [nM] |
| --- | --- |
| CC/C(Nc1cnn([C@@H]2CCOC2)c1)=C1/C(=O)Nc2ccc(C(=O)NCC(F)(F)F)cc21 [Example 105] | ≤ 100 |
| CC/C(Nc1cnn(C2CCOCC2)c1)=C1/C(=O)Nc2ccc(C(=O)NCC(F)(F)F)cc21 [Example 106] | ≤ 100 |
| CC/C(Nc1cn(C(C)C)nn1)=C1/C(=O)Nc2ccc(C(=O)NCC(F)(F)F)cc21 [Example 122] | 100 to 300 |
| CC/C(Nc1cccnc1)=C1/C(=O)Nc2ccc(C(=O)NCC(F)(F)F)cc21 [Example 124] | 300 to 600 |
| CC/C(Nc1cnn(C(C)C)c1)=C1/C(=O)Nc2ccc(C(=O)NCCOC)cc21 [Example 126] | 100 to 300 |
| CC/C(Nc1cnn(C(C)C)c1)=C1/C(=O)Nc2ccc(C(=O)NCCC#N)cc21 [Example 127] | 100 to 300 |
| CC/C(Nc1cnn(C(C)C)c1)=C1/C(=O)Nc2ccc(C(=O)NC[C@@H](C)OC)cc21 [Example 128] | 300 to 600 |
| CC/C(Nc1cnn(C(C)C)c1)=C1/C(=O)Nc2ccc(C(=O)NCC3CC(F)(F)C3)cc21 [Example 134] | ≤ 100 |
| CC/C(Nc1cnn(C(C)C)c1)=C1/C(=O)Nc2ccc(C(=O)NCC3CCC4(CCC4)O3)cc21 (stereo not drawn) [Example 138] | 300 to 600 |
| CC/C(Nc1cnn(C2CC(F)(F)C2)c1)=C1/C(=O)Nc2ccc(C(=O)NCC(F)(F)F)cc21 [Example 144] | ≤ 100 |
| CC/C(Nc1ccccn1)=C1/C(=O)Nc2ccc(C(=O)NCC(F)(F)F)cc21 [Example 145] | 100 to 300 |
| CC/C(Nc1cnn(C(F)F)c1)=C1/C(=O)Nc2ccc(C(=O)NCC(C)C)cc21 [Example 147] | ≤ 100 |
| CC/C(Nc1cnn(C(C)C)c1)=C1/C(=O)Nc2ccc(C(=O)NCC(C)(C)OC)cc21 [Example 148] | 100 to 300 |
| CC/C(Nc1cc(C(F)(F)F)ccn1)=C1/C(=O)Nc2ccc(C(=O)NCC(F)(F)F)cc21 [Example 149] | 100 to 300 |
| CC/C(Nc1cnn(CC)c1)=C1/C(=O)Nc2ccc(C(=O)NCC3(F)CC3)cc21 [Example 153] | ≤ 100 |
| CC/C(Nc1cnn(C(C)C)c1)=C1/C(=O)Nc2ccc(C(=O)NCC3(C#N)CC3)cc21 [Example 156] | ≤ 100 |
| CC/C(Nc1cnn(CC(C)OC)c1)=C1/C(=O)Nc2ccc(C(=O)NCC(F)(F)F)cc21 (stereo not drawn) [Example 157] | ≤ 100 |
| CC/C(Nc1cnn(CC(C)OC)c1)=C1/C(=O)Nc2ccc(C(=O)NCC(F)(F)F)cc21 (stereo not drawn) [Example 158] | 100 to 300 |
| CC/C(Nc1cnn(C(C)CC)c1)=C1/C(=O)Nc2ccc(C(=O)NCC(F)(F)F)cc21 (stereo not drawn) [Example 159] | ≤ 100 |
| CC/C(Nc1cnn(CC(F)(F)F)c1)=C1/C(=O)Nc2ccc(C(=O)NCC(C)(C)F)cc21 [Example 160] | ≤ 100 |
| CC/C(Nc1cnn(C(C)C)c1)=C1/C(=O)Nc2ccc(C(=O)NCCC(F)(F)F)cc21 [Example 166] | ≤ 100 |
| CC/C(Nc1cnn(C(C)C)c1)=C1/C(=O)Nc2ccc(C(=O)NCC3(C)CCOC3)cc21 (stereo not drawn) [Example 168] | 100 to 300 |
| CC/C(Nc1cnn(C(F)(F)F)c1)=C1/C(=O)Nc2ccc(C(=O)NCC(C)C)cc21 [Example 169] | 100 to 300 |
